Experiment [1] deals with UFO-4 nectarines. In words: Dose rate trial in Spain, fruit numbers. The format is in vivo, nectarine. How it is done:
(§1) Two trials were carried out in Spain: a timing trial and a dose rate trial. The dose rate trial was done at UFO-4 nectarines. The use of GA7 (>95% pure with respect to the presence of GA4) was applied in amounts between 0.25 and 2 L/hL at 2 months of full bloom on UFO-4 peach.

The subject of experiment [2] is peach. Description: Ex 6: 2011 peach return bloom (blossom counts proximal/distal). The class given is in vivo. The source says: Shoots were divided in half and blossoms were counted according to proximal, the half closest to the tree trunk, and distal, the half closest to the shoot tip.
The subject of experiment [3] is UFO-4 nectarines. In words: Dose rate trial in Spain, fruit numbers. The class given is in vivo, nectarine. Particulars: 10 g/hL (Falgro tablets), comparative experiment B.
For another experiment, the system named is apricot variety. Particulars: cited from earlier work.
Experiment [4] deals with peach. Description: Initial evaluation trial in Piemonte, GA7 on peach fruitlets. Particulars: 750 ml/hl on 10 mm fruitlets of peach. The format is in vivo. The protocol: An initial test was carried out as an evaluation trial in Piemonte with GA7 applied at 750 ml/hl on 10 mm fruitlets of peach.
Experiment [5] concerns peach and nectarine. Description: 2010-11 thinning trials in Spain (Catalonia, Masso). The format is in vivo. The protocol:
(§2) Trials were carried out in Italy and Spain with GA7. The trees were treated with GA7 about 3 months after full bloom in order to reduce flowering the year thereafter.
In Spain, trials were carried out on peach and nectarine with GA7 (>95% pure relative to GA4). The first assessments were done at harvest in 2010. […] The main assessments took place in spring 2011 (i.e. the next year): The reduction of the number of buds per cm was in the order of 35% in the trials carried out in the Catalonia region. In the trials in Masso also, clear reductions of 41-78% were found depending on the variety and the dose. In the meantime, fruit size was increased. Time necessary for hand thinning was recorded in the trials done in Catalonia. The treatment with GA7 allowed a reduction of about 30% of the hand thinning time.

The subject of experiment [6] is peach and nectarine. Description: 2010-11 thinning trial in Italy. The class given is in vivo. Particulars: 1 L/100 L ca. 3 months after full bloom, GA7 95% pure relative to GA4. The protocol:
as §2

The test system of a further experiment is nectarine. In words: 2011-12 trial in nectarine, return bloom (number of flowers on distal and basal part of branches). The class given is in vivo. The protocol: as §2
(§3) In 2011, new trials were started: 4 trials in peach and nectarines.

Another experiment has as its system peach and nectarines. Description: Other three 2011-12 trials, number of flowers per branch. The format is in vivo. Particulars: depending on the trial and the rate. How it is done: as §2, §3
In a further experiment the test system is Merryl O Henry peach. In words: Timing trial in Spain, fruit numbers. The class given is in vivo. The protocol:
as §1
Further trial was executed on Merryl O Henry peach. The application of GA7 was varied over time, and in one programme GA7 was applied in two doses, 2 weeks apart.

Experiment [7] concerns peach. Description: Ex 7: 2012 peach return bloom. The class given is in vivo. Particulars: applied at 50 ppm. The text has this:
Once again, shoots were divided in half and blossoms were counted according to proximal and distal halves.

The subject of experiment [8] is peach. In words: Ex 8: 2011 peach trial (flowers per branch, fruit size and quality). The class given is in vivo. The source says: This study consisted of 3 treatments applied on April 25, May 10, and May 26, 2011 (which is 45, 60 and 75 days after full bloom): • 1. Untreated check • 2. FAL 900 at a rate of 25 ppm ai (C) which is 2.5 g per 100 L, which is 0.25 L formulation per 100 L. • 3. FAL 900 at a rate of 50 ppm ai (C) • 4. FAL 900 at a rate of 10 ppm ai (3 treatments with 2 weeks interval) 2011-12 Observations: Evaluations consisted of assessing for firmness, soluble solids, and titratable acidity, and weight of 20 fruit per plot on end of July early August. Shoot measurements were recorded on end of February in […] from ten shoots per plot. The number of flowers per branch were counted from two halves (proximal and distal) of ten branches per plot on end of February 2012.

Experiment [9] concerns stone fruit. In words: Summary of the thinning tests with GA7. The class given is in vivo. Particulars: compared with fully hand-thinned fruit.
The subject of experiment [10] is stone fruit. In words: Reliability of fruit thinning by spraying on fruit trees. The format is in vivo. Particulars: sprayed on fruit trees. The source says:
GA7 may be used in admixture with GA4, but the relative amounts of GA7 to GA4 are 70% GA7 or more and 30 GA4 or less. Preferably, the GA7 contains less than 10 wt % of GA4 relative to the GA7, more preferably less than 5 wt %. […] In some years, some thinning is observed, but this effect is not consistently achieved.

Setting [11] is: 10 g/hL (Falgro tablets), comparative experiment B.
Where [12] appears, read: 0.25 L/hL at 2 months of full bloom.
Where [13] appears, read: 0.5 L/hL at 2 months of full bloom.
Setting [14] is: 1.0 L/hL at 2 months of full bloom.
Where [15] appears, read: 2.0 L/hL at 2 months of full bloom.
Setting [16] is: 0.5 L/hL, sprays 1.5 and 2 month after full bloom (two doses).
Setting [17] is: 1 L/hL, spray 1.5 month after full bloom.
Setting [18] is: 1 L/hL, spray 2 month after full bloom.
[19] abbreviates: 1 L/hL, spray 2.5 month after full bloom.

We go through three compounds from patent US10485237B2, “Use of a chemical agent for thinning of stone fruit” (FINE AGROCHEMICALS LIMITED, priority 2014, dated 2019).

Entries after “also recorded” stand apart in the source; their conditions may differ.

As to `C=C1C[C@]23C[C@@]1(O)CC[C@H]2[C@@]12C=C[C@H](O)[C@@](C)(C(=O)O1)[C@H]2[C@@H]3C(=O)O` [GA3, gibberellic acid], in the experiment with UFO-4 nectarines [1] (setting [11]), the “Number of fruit/m of short fruiting shoots (<20 cm)” value (“Number of fruit/m … (<20 cm)” below) was 29 and the “Total number of fruit per tree” value came to 675. The “blossom counts in comparison to the UTC” value with peach [2] (both rates, throughout the trial) is listed as “consistently lower blossom counts”. Besides, in the experiment with peach [2] (two evaluation dates), the “rate response of blossom counts” value was “a rate response was observed for the first evaluation date, but not the second”. Also, in the experiment on UFO-4 nectarines [3], the “Number of fruit/m of long fruiting shoots (>20 cm)” value (from here on “Number of fruit/m … (>20 cm)”) is listed as 18 and the “Number of fruit/m of total fruiting shoots” value turned out to be 19.

In the case of `C=C1C[C@]23C[C@H]1CC[C@H]2[C@@]12CC[C@H](O)[C@@](C)(C(=O)O1)[C@H]2[C@@H]3C(=O)O` [GA4, reference compound], the “effectiveness compared among GA3, GA4 and GA7” value in the experiment on apricot variety (applied in May or June, source and purity unclear) is listed as “more effective than either GA3 or GA7”.

Consider `C=C1C[C@]23C[C@H]1CC[C@H]2[C@@]12C=C[C@H](O)[C@@](C)(C(=O)O1)[C@H]2[C@@H]3C(=O)O` [GA7, gibberellin 7], for which, in the experiment with peach [4], the “control of flowering in the following year” value is reported as “high control of flowering”. In the experiment with peach [4] (especially on young lateral branches), the budding entry is listed as “better budding”. Also, the fruit size result in the experiment on peach and nectarine [5] (Masso trials, 2011) is “increased”. The “impact of the treatments on yield and fruit quality” value in the experiment with peach and nectarine [5] (assessments at harvest in 2010, GA7 >95% pure relative to GA4) was “did not show any impact”. Also, in the experiment with peach and nectarine [5] (spring 2011, Masso, depending on the variety and the dose), the “reductions (trials in Masso)” value is 41-78%. Also, the “reduction of the number of buds per cm” value in the experiment with peach and nectarine [5] (spring 2011, trials in the Catalonia region) was approximately 35%. For the same compound, in the experiment with peach and nectarine [5] (trials done in Catalonia), the “reduction of the hand thinning time” value is recorded as “about 30%”. Further, the “reduction in the number of fruit/meter of branch” value is on record as 1.5% in the experiment on peach and nectarine [6] (variety Laura); 32.9% in the experiment with peach and nectarine [6] (variety Sinphony). For the same compound, the No of flowers with nectarine (basal part, 0.5 L/hL) amounted to 8.5; in the experiment with nectarine (basal part, 1 L/hL), 5.4; in the experiment on nectarine (distal part, 0.5 L/hL), 4.7; in the experiment with nectarine (distal part, 1 L/hL), 3.7. The “No of flowers, change vs untreated” value is −37% with nectarine (basal part, 0.5 L/hL); −60% in the experiment on nectarine (basal part, 1 L/hL); −58% with nectarine (distal part, 0.5 L/hL); −67% in the experiment with nectarine (distal part, 1 L/hL). In addition, the return bloom entry with nectarine (distal and proximal part of the branches, rate effect between 0.5 and 1 L/100 L) is reported as “return bloom is reduced”. For the same compound, in the experiment on peach and nectarines, the “reduction in the number of flowers per branch in comparison to the untreated” value is −17 to −50%. Also, the “Number of fruit/m … (>20 cm)” value with UFO-4 nectarines [1] (setting [12]) was found to be 20; in the experiment on UFO-4 nectarines [1] (setting [13]), 23; in the experiment on UFO-4 nectarines [1] (setting [14]), 17; in the experiment with UFO-4 nectarines [1] (setting [15]), 13; in the experiment with Merryl O Henry peach (setting [16]), 4.7; with Merryl O Henry peach (setting [17]), 8.6. The “Number of fruit/m … (>20 cm)” value in the experiment with Merryl O Henry peach (setting [18]) came to 5.1; in the experiment with Merryl O Henry peach (setting [19]) it was 3.7. The “Number of fruit/m … (<20 cm)” value with UFO-4 nectarines [1] (setting [12]) is reported as 27; in the experiment on UFO-4 nectarines [1] (setting [13]), 28; with UFO-4 nectarines [1] (setting [14]) it was 12; with UFO-4 nectarines [1] (setting [15]) it was 7; in the experiment with Merryl O Henry peach (setting [16]), 5.8; with Merryl O Henry peach (setting [17]) it was 5.9. For the same compound, the “Number of fruit/m … (<20 cm)” value stood at 3.6 in the experiment on Merryl O Henry peach (setting [18]) and 2.8 in the experiment on Merryl O Henry peach (setting [19]). Besides, the “Number of fruit/m of total fruiting shoots” value with UFO-4 nectarines [1] (setting [12]) came to 21; with UFO-4 nectarines [1] (setting [13]), 24; with UFO-4 nectarines [1] (setting [14]) it was 16; in the experiment with UFO-4 nectarines [1] (setting [15]), 12; in the experiment on Merryl O Henry peach (setting [16]), 5.6; in the experiment on Merryl O Henry peach (setting [17]), 6.5. In addition, the “Number of fruit/m of total fruiting shoots” value in the experiment with Merryl O Henry peach (setting [18]) turned out to be 3.8; in the experiment with Merryl O Henry peach (setting [19]), 3.0. In addition, the “Total number of fruit per tree” value in the experiment with UFO-4 nectarines [1] (setting [12]) turned out to be 704; with UFO-4 nectarines [1] (setting [13]) it was 729; in the experiment on UFO-4 nectarines [1] (setting [14]) it was 491; with UFO-4 nectarines [1] (setting [15]), 375; in the experiment with Merryl O Henry peach (setting [16]), 115; in the experiment with Merryl O Henry peach (setting [17]) it was 149. Besides, the “Total number of fruit per tree” value in the experiment on Merryl O Henry peach (setting [18]) was determined as 77; in the experiment with Merryl O Henry peach (setting [19]) it was 69. Besides, the “thinning effectiveness of GA7 versus GA3” value in the experiment with UFO-4 nectarines [1] (at comparable amounts of GA7 and GA3 (Falgro tablets)) is reported as “more effective”. For the same compound, the “effectiveness for thinning stone fruit” value with Merryl O Henry peach (applied at varying times) is “effective for thinning stone fruit”. Moreover, the “2012 return bloom, bloom counts totaled across the entire fruiting branch (proximal+distal)” value in the experiment on peach [7] is listed as “significant reduction”. The “number of flowers on the lower or proximal half of the branch (A)” value with peach [8] (50 ppm ai (C)) is on record as “significantly lowest”. In addition, the “size of peaches collected” value in the experiment on peach [8] (50 ppm ai, tree also producing the largest peaches in 2011) was “largest peaches”. Besides, the “quality of the peaches” value in the experiment with peach [8] (firmness, soluble solids, titratable acidity, weight) is given as “not influenced”. For the same compound, the “quality of the resultant fruit” value in the experiment with stone fruit [9] was “same quality as fully hand-thinned fruit”. Also, the “reliability of fruit thinning results” value in the experiment with stone fruit [10] was “reliable thinning results”. Besides, in the experiment on apricot variety (6 experiments), the “effect on flowering vs. untreated” value is listed as “only in 1 out of 6 experiments a non significant reducing effect on flowering; also recorded: in 4 experiments out of 6 shows the opposite effect of increased flowering”.
